Results on 17 compounds are retold here after US11753407B2, “Compounds for treating spinal muscular atrophy” (PTC Therapeutics, Inc., priority 2012, dated 2023).

Usually melting point stands for the temperature of the solid-liquid transition.

The subject of data set [1] is SMN2 minigene mRNA (SMN2-A minigene) in HEK293H cells. As to the kind of experiment: SMN2 minigene mRNA splicing RT-qPCR assay in cultured cells. In kind it is cell-based, human. Particulars: Homo sapiens, HEK293-H; concentration increasing full length SMN2 mRNA 1.5-fold relative to vehicle-treated cells; HEK293H cells with SMN2-A minigene, 24 hours, 7-point concentration data; read-out: EC1.5x for production of full length SMN2 mRNA. The method in brief: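 EC1.5× values derive from a 24 h treatment of SMN2-A minigene HEK293H cells and GAPDH-normalized RT-qPCR of exon 7-included minigene mRNA relative to vehicle-treated cells.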
(In qPCR the cycle at which signal appears reflects the starting amount.)

In data set [2] the test system is Smn protein in SMA patient fibroblast cells (GM03813). As to the kind of experiment: Smn protein assay in cultured cells (SMN HTRF). In kind it is cell-based, human. Particulars: SMA patient fibroblast cells, 48 hours; for maximum fold (Fold) increase of Smn protein: 7-point concentration data, fold relative to vehicle control; for EC1.5x for Smn protein expression: 7-point concentration curve, SMN HTRF, concentration producing 1.5 times Smn protein vs DMSO vehicle control. The essentials:
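Cells were cultured 72 h, seeded at 5,000/well and dosed with seven concentrations (3.16-fold apart) for 48 h. HTRF on lysates, read at 665 and 620 nm, gave blank-corrected ΔF values relative to DMSO. Potency is reported as EC1.5×, efficacy as maximal fold Smn increase.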
(In general: In TR-FRET formats the signal depends on donor and acceptor labels being close together.)

Where only a bound is given, the exact number is not on record here.

Compound `COc1ccc(-c2cc(=O)n3cc(N4CCNCC4)ccc3n2)c(OC)c1` [Compound 89, 2-(2,4-dimethoxyphenyl)-7-(piperazin-1-yl)-4H-pyrido[1,2-a]pyrimidin-4-one] had a melting point of 171 to 173 °C. Further, the EC (1.5-fold increase) in data set [1] is 1 to 3 µM. For the same compound, the “maximum fold (Fold) increase of Smn protein” value (“maximum fold (Fold) increase” for short) in data set [2] was “*** (a fold increase between >1.35 and ≤1.5 is indicated by three stars (***))”.

In turn, `COc1ccc(-c2cc(=O)n3cc(N4CCN[C@@H](C)C4)ccc3c2)cc1OC` [Cpd 91, 2-(3,4-dimethoxyphenyl)-7-[(3S)-3-methylpiperazin-1-yl]-4H-quinolizin-4-one] yielded a melting point of 243 to 245 °C. In addition, the EC (1.5-fold increase) in data set [1] fell in the range of 1 to 3 µM. Moreover, the “maximum fold (Fold) increase” value in data set [2] is “** (a fold increase between >1.2 and ≤1.35 is indicated by two stars (**))”.

The compound `COc1ncc(-c2cc(=O)n3cc(N4CCNCC4)ccc3n2)cc1Cl` [Compound 96, 2-(5-chloro-6-methoxypyridin-3-yl)-7-(piperazin-1-yl)-4H-pyrido[1,2-a]pyrimidin-4-one] came in with a melting point of 201 to 209 °C. Moreover, the EC (1.5-fold increase) in data set [1] was in the range of 0.3 to 1 µM. In data set [2], the “EC1.5x for Smn protein expression” value was “*** (an EC1.5× between >0.3 μM and ≤1 μM is indicated by three stars (***))”; the “maximum fold (Fold) increase” value was “**** (a fold increase between >1.5 and ≤1.65 is indicated by four stars (****))”.

In the case of `Cc1cn2nc(-c3cc(=O)n4cc(N5C[C@@H]6C[C@H]5CN6)ccc4n3)cc2c(C)n1` [Compound 399, 7-[(1S,4S)-2,5-diazabicyclo[2.2.1]hept-2-yl]-2-(4,6-dimethylpyrazolo[1,5-a]pyrazin-2-yl)-4H-pyrido[1,2-a]pyrimidin-4-one], the melting point is 218 to 221 °C. Moreover, the EC (1.5-fold increase) in data set [1] lay within 0.3 to 1 µM. In data set [2], the “EC1.5x for Smn protein expression” value was “*** (an EC1.5× between >0.3 μM and ≤1 μM is indicated by three stars (***))”; the “maximum fold (Fold) increase” value is “**** (a fold increase between >1.5 and ≤1.65 is indicated by four stars (****))”.

The compound `CCc1cc(-c2cc(=O)n3cc(N4CCN(CC)[C@H](C)C4)ccc3n2)cn2cc(C)nc12` [Compound 701, 2-(8-ethyl-2-methylimidazo[1,2-a]pyridin-6-yl)-7-[(3R)-4-ethyl-3-methylpiperazin-1-yl]-4H-pyrido[1,2-a]pyrimidin-4-one] returned a melting point of 179 to 182 °C. Also, in data set [1], the EC (1.5-fold increase) was under 0.1 µM. Also, in data set [2], the “EC1.5x for Smn protein expression” value is on record as “**** (an EC1.5x≤0.3 μM is indicated by four stars (****))” and the “maximum fold (Fold) increase” value was “***** (a fold increase >1.65 is indicated by five stars (*****))”.

Regarding `CCOc1ccc(-c2cc(=O)n3cc(N4CCNCC4)ccc3n2)cc1F` [Cpd 153, 2-(4-ethoxy-3-fluorophenyl)-7-(piperazin-1-yl)-4H-pyrido[1,2-a]pyrimidin-4-one], the melting point is 180 to 186 °C. For the same compound, the EC (1.5-fold increase) in data set [1] was 0.3 to 1 µM. In data set [2], the “maximum fold (Fold) increase” value was “** (a fold increase between >1.2 and ≤1.35 is indicated by two stars (**))”.

In turn, `Cc1cn2nc(-c3cc(=O)n4cc(N5CCCN(C)CC5)ccc4n3)cc2c(C)n1` [Compound 334, 2-(4,6-dimethylpyrazolo[1,5-a]pyrazin-2-yl)-7-(4-methyl-1,4-diazepan-1-yl)-4H-pyrido[1,2-a]pyrimidin-4-one] came in with a melting point of 169 to 171 °C. The EC (1.5-fold increase) in data set [1] is under 0.1 µM. For the same compound, in data set [2], the “EC1.5x for Smn protein expression” value is given as “**** (an EC1.5x≤0.3 μM is indicated by four stars (****))” and the “maximum fold (Fold) increase” value is given as “***** (a fold increase >1.65 is indicated by five stars (*****))”.

`CCN(CC)CC1CN(c2ccc3nc(-c4cc5c(C)nc(C)cn5n4)cc(=O)n3c2)C1` [Compound 781, 7-{3-[(diethylamino)methyl]azetidin-1-yl}-2-(4,6-dimethylpyrazolo[1,5-a]pyrazin-2-yl)-4H-pyrido[1,2-a]pyrimidin-4-one]: the melting point was in the range of 205 to 207 °C. The EC (1.5-fold increase) in data set [1] is under 0.1 µM. For the same compound, in data set [2], the “EC1.5x for Smn protein expression” value is on record as “**** (an EC1.5x≤0.3 μM is indicated by four stars (****))” and the “maximum fold (Fold) increase” value is reported as “***** (a fold increase >1.65 is indicated by five stars (*****))”.

Turning to `Cc1cn2cc(-c3cc(=O)n4cc(N5CCNCC5)ccc4n3)cc(C(F)(F)F)c2n1` [Compound 733, 2-[2-methyl-8-(trifluoromethyl)imidazo[1,2-a]pyridin-6-yl]-7-(piperazin-1-yl)-4H-pyrido[1,2-a]pyrimidin-4-one], the melting point lay within 325 to 328 °C. Also, the EC (1.5-fold increase) in data set [1] was under 0.1 µM. In data set [2], the “EC1.5x for Smn protein expression” value is “**** (an EC1.5x≤0.3 μM is indicated by four stars (****))” and the “maximum fold (Fold) increase” value was “***** (a fold increase >1.65 is indicated by five stars (*****))”.

`CCN1CCN(c2ccc3nc(-c4cc(Cl)c5nc(C)cn5c4)cc(=O)n3c2)CC1` [Compound 494, 2-(8-chloro-2-methylimidazo[1,2-a]pyridin-6-yl)-7-(4-ethylpiperazin-1-yl)-4H-pyrido[1,2-a]pyrimidin-4-one] registered a melting point of 264 to 268 °C. The EC (1.5-fold increase) in data set [1] is under 0.1 µM. For the same compound, in data set [2], the “EC1.5x for Smn protein expression” value was “**** (an EC1.5x≤0.3 μM is indicated by four stars (****))”; the “maximum fold (Fold) increase” value is “**** (a fold increase between >1.5 and ≤1.65 is indicated by four stars (****))”.

`CCc1nc2ccc(-c3cc(=O)n4cc(N5CCNCC5)ccc4n3)cc2o1` [Compound 265, 2-(2-ethyl-1,3-benzoxazol-6-yl)-7-(piperazin-1-yl)-4H-pyrido[1,2-a]pyrimidin-4-one] displayed a melting point of 170 to 175 °C. Besides, the EC (1.5-fold increase) in data set [1] is 1 to 3 µM. Besides, the “maximum fold (Fold) increase” value in data set [2] is “*** (a fold increase between >1.35 and ≤1.5 is indicated by three stars (***))”.

`Cc1cn2cc(-c3ccc4nc(C5=CCN(C)CC5)cc(=O)n4c3)ccc2n1` [Compound 376, 7-(2-methylimidazo[1,2-a]pyridin-6-yl)-2-(1-methyl-1,2,3,6-tetrahydropyridin-4-yl)-4H-pyrido[1,2-a]pyrimidin-4-one] returned a melting point of 203 to 207 °C. Besides, the EC (1.5-fold increase) in data set [1] is under 0.1 µM. In data set [2], the “EC1.5x for Smn protein expression” value is “*** (an EC1.5× between >0.3 μM and ≤1 μM is indicated by three stars (***))”; the “maximum fold (Fold) increase” value was “*** (a fold increase between >1.35 and ≤1.5 is indicated by three stars (***))”.

Regarding `Cc1cn2nc(-c3cc(=O)n4cc(N5CCN(C)[C@H](C)C5)ccc4n3)cc2c(C)n1` [Compound 397, 7-[(3R)-3,4-dimethylpiperazin-1-yl]-2-(4,6-dimethylpyrazolo[1,5-a]pyrazin-2-yl)-4H-pyrido[1,2-a]pyrimidin-4-one], the melting point was in the range of 247 to 249 °C. Also, in data set [1], the EC (1.5-fold increase) was under 0.1 µM. Moreover, in data set [2], the “EC1.5x for Smn protein expression” value is reported as “**** (an EC1.5x≤0.3 μM is indicated by four stars (****))” and the “maximum fold (Fold) increase” value is recorded as “***** (a fold increase >1.65 is indicated by five stars (*****))”.

`Cc1cn2nc(-c3cc(=O)n4cc(N5CCNCC5)ccc4n3)cc2c(N(C)C)n1` [Cpd 688, 2-[4-(dimethylamino)-6-methylpyrazolo[1,5-a]pyrazin-2-yl]-7-(piperazin-1-yl)-4H-pyrido[1,2-a]pyrimidin-4-one]: the melting point was 245 to 248 °C. Besides, the EC (1.5-fold increase) in data set [1] was 1 to 3 µM. In data set [2], the “EC1.5x for Smn protein expression” value was “** (an EC1.5× between >1 μM and ≤3 μM is indicated by two stars (**))”; the “maximum fold (Fold) increase” value was “*** (a fold increase between >1.35 and ≤1.5 is indicated by three stars (***))”.

`Cc1cn2nc(-c3cc(=O)n4cc(N5CCC6C(CCN6CCO)C5)ccc4n3)cc2c(C)n1` (stereo not shown) [Compound 624, 2-(4,6-dimethylpyrazolo[1,5-a]pyrazin-2-yl)-7-[1-(2-hydroxyethyl)octahydro-5H-pyrrolo[3,2-c]pyridin-5-yl]-4H-pyrido[1,2-a]pyrimidin-4-one] yielded a melting point of 184 to 187 °C. For the same compound, in data set [1], the EC (1.5-fold increase) was under 0.1 µM. For the same compound, in data set [2], the “EC1.5x for Smn protein expression” value was “**** (an EC1.5x≤0.3 μM is indicated by four stars (****))” and the “maximum fold (Fold) increase” value is listed as “***** (a fold increase >1.65 is indicated by five stars (*****))”.

`C[C@H]1CN(c2ccc3nc(-c4ccc(O)c(OC(F)(F)F)c4)cc(=O)n3c2)CCN1` [Compound 84, 2-[4-hydroxy-3-(trifluoromethoxy)phenyl]-7-[(3S)-3-methylpiperazin-1-yl]-4H-pyrido[1,2-a]pyrimidin-4-one] returned a melting point of 152 to 155 °C. The EC (1.5-fold increase) in data set [1] is 1 to 3 µM. Also, in data set [2], the “EC1.5x for Smn protein expression” value is “** (an EC1.5× between >1 μM and ≤3 μM is indicated by two stars (**))”; the “maximum fold (Fold) increase” value is listed as “***** (a fold increase >1.65 is indicated by five stars (*****))”.

As for `Cc1cn2nc(-c3cc(=O)n4cc(N5C[C@H]6CNC[C@H]6C5)ccc4n3)cc2c(C)n1` [Compound 746, 2-(4,6-dimethylpyrazolo[1,5-a]pyrazin-2-yl)-7-[(3aR,6aS)-hexahydropyrrolo[3,4-c]pyrrol-2(1H)-yl]-4H-pyrido[1,2-a]pyrimidin-4-one], the melting point is 239 to 242 °C. In addition, in data set [1], the EC (1.5-fold increase) is under 0.1 µM. Also, in data set [2], the “EC1.5x for Smn protein expression” value is given as “**** (an EC1.5x≤0.3 μM is indicated by four stars (****))” and the “maximum fold (Fold) increase” value is “***** (a fold increase >1.65 is indicated by five stars (*****))”.
